Results on 15 molecules are retold here after patent US6770784B2, “Use of γ-hydroxybutyric acid amides in the treatment of drug addiction and in particular of alcoholism” (Laboratorio Farmaceutico C.T. S.r.l., priority 1996, dated 2004).

One series deals with rats. The experiment in a line: General neuropharmacological profile: behaviour observation (excitation, bursts, sedation) after i.p. administration. It is filed as in vivo. The conditions noted are these: rat; for Neuropharmacological profile: different dosage levels; for Duration of action compared with GHB / Potency compared with GHB: excitatory effects. On the procedure: The tests, which were intended to evaluate the neuropharmacological activity of the amides of the invention, were conducted on rats, because most of the data available in the literature concern said animal species.
The time at which the effects started, their intensity and duration were recorded.
Molecules were evaluated by systematically using a control group, in which rats had been treated with the utilized solvent, and a positive control group, in which rats had been treated intraperitoneally (i.p.) with a standard dose of GHB sodium salt (100 mg/kg) in 2 ml. GHB and the assayed amides were administered in 50% DMSO in distilled water.
Said dose of drug, used as a reference, produced typical excitatory effects, characterized by the onset of generic excitation accompanied by more particular paroxysms, the so-called BURSTS of excitation.
Generic excitation was characterized by an increased motor activity, extremely sharp and jerky movements, higher reactivity and shakes.
“Bursts” of excitation were typical and well recognizable: the animals fought and frantically pursued each other.
Recordings concerned the number of “bursts”, the time of their onset after treatment, their intensity, the partial or total involvement of treated animals, the duration of the single episodes.
The sedation produced by higher doses of the molecules examined was evaluated analogously: time of onset, degree of sedation, partial or total involvement, duration of the effects.
Table 2—General Neuropharmacological Profile of Benzylamido Derivatives of GHB Compared With a 100 mq/kg Dose of GHB (Excitatory Dose)

The test system of series [1] is motor activity of the rat. The experiment in a line: Effects on the motor activity of the rat. It is filed as in vivo. The note with it: i.p., first half hour after administration. On the procedure: Utilizing these preliminary goods results, the effects of said compounds were studied on the rats motor activity. This experiment permits to obtain a more objective evaluation about the effectiveness of the tested molecules, confirming and specifying the effective dosages, start and duration of the effects.
For these tests too, rats were subdvided into two groups: a control group of rats treated with the solvent and a positive control group consisting of rats treated i.p. with 300 mg/kg/2 ml GHB sodium salt in the aforesaid solvent.
GHB was systematically used as a reference: when administered at the above doses its motor reducing action spans a wide variation range.
Table 3—Effects on the Motor Activity Produced by Some Benzylamido Derivatives of GHB Compared With a 300 mg/kg Dose of GHB (Sedative Dose)
The following table reports data referred to the first half hour after administration. The per cent decreases in motor activity in respect of GHB are reported.

The conditions of series [2]: cited from earlier work.

Consider `COCCCC(=O)NCc1cccc2ccccc12` [Compound 14)], for which, in the series on rats, the “Potency (dose) and duration of action compared with GHB” value (“Potency … of action compared with GHB” for short) was “better than those of GHB”; the Neuropharmacological profile result is “biphasic neuropharmacological profile”; the “Duration of action compared with GHB” value is recorded as “longer duration of action”; the “Potency compared with GHB” value is listed as “more powerful than GHB”. In the series on rats (dose 25-50 mg/kg), the “Excitatory effects Duration” value was 180 min and the “Excitatory effects Start” value turned out to be 30 min. Also, in series [1] (dose 50 mg/kg), the “< % (per cent decrease in motor activity)” value is 65%. In series [1] (dose 100 mg/kg), the “< % (per cent decrease in motor activity)” value amounted to 75%.

With `COc1cc(CNC(=O)CCCO)cc(OC)c1` [Compound 8)], in the series on rats (dose 100 mg/kg), the “Excitatory effects Duration” value stood at 30 min and the “Excitatory effects Start” value was found to be 60 min. The “< % (per cent decrease in motor activity)” value in series [1] (dose 300 mg/kg) is 68%.

In the case of `O=C(O)CCCO` [GHB, γ-hydroxybutyric acid], the “Duration of action (excitatory effects)” value in the series on rats (GHB reference) amounted to 1 h. Further, the Neuropharmacological profile result in the series with rats was “causes excitation at relatively low doses and sedation at higher doses”. The “Maximum concentration peak, time after administration” value in series [2] (absorption by the gastroenteric apparatus) was 35 to 40 min. Further, the Half-life time in series [2] (in vivo) was 20 to 25 min.

Consider `COCCCC(=O)NCc1ccccc1` [Compound 10)], for which, in the series with rats, the Neuropharmacological profile entry was “biphasic neuropharmacological profile” and the “Potency compared with GHB” value is “more powerful than GHB”. Moreover, in the series with rats (dose 25-50 mg/kg), the “Excitatory effects Duration” value turned out to be 30 min and the “Excitatory effects Start” value is reported as 20 min. Moreover, the “< % (per cent decrease in motor activity)” value in series [1] (dose 100 mg/kg) was determined as 42%.

For the molecule `O=C(CCCO)NCc1ccc(Cl)cc1` [Compound 4)], the “Excitatory effects Duration” value in the series on rats (dose 50-100 mg/kg) worked out at 45 min. Besides, in the series on rats (dose 50-100 mg/kg), the “Excitatory effects Start” value came out at 30 min. In addition, the “< % (per cent decrease in motor activity)” value is recorded as 0% in series [1] (dose 100 mg/kg) and 80% in series [1] (dose 300 mg/kg).

As to `Nc1ccc(CNC(=O)CCCO)cc1` [Compound 3)], in the series on rats, the Neuropharmacological profile entry is listed as “biphasic neuropharmacological profile” and the “Potency compared with GHB” value is “more powerful than GHB”. Besides, in the series with rats (dose 25-50 mg/kg), the “Excitatory effects Duration” value came to 60 min and the “Excitatory effects Start” value was 30 min.

Regarding `Cc1ccc(CNC(=O)CCCO)cc1` [Compound 5)], in the series on rats, the “Potency … of action compared with GHB” value is recorded as “substantially superimposable to GHB acid”; the Neuropharmacological profile result is “biphasic neuropharmacological profile”. Moreover, the “Dosage required for excitatory effects” value in the series with rats (GHB reference excitatory dose 100 mg/kg) came to 100 mg/kg. Also, in the series with rats (dose 100 mg/kg), the “Excitatory effects Start” value amounted to 20 min. Also, in series [1] (dose 300 mg/kg), the “< % (per cent decrease in motor activity)” value came to 77%.

In the case of `CCCNC(=O)CCCO` [Compound 2)], the “< % (per cent decrease in motor activity)” value in series [1] (dose 300 mg/kg) was found to be 82%.

`CCOCCCC(=O)NCc1ccc(C)cc1` [Compound 12)]: in the series with rats, the Neuropharmacological profile result is “biphasic neuropharmacological profile” and the “Potency compared with GHB” value is listed as “more powerful than GHB”. Also, in the series with rats (dose 25-50 mg/kg), the “Excitatory effects Duration” value is on record as 30 min and the “Excitatory effects Start” value amounted to 60 min. Besides, the “< % (per cent decrease in motor activity)” value in series [1] (dose 100 mg/kg) was determined as 54.5%.

As for `COc1ccc(CNC(=O)CCCO)cc1` [Compound 6)], in the series with rats (dose 25-50 mg/kg), the “Excitatory effects Duration” value turned out to be 45 min and the “Excitatory effects Start” value is 45 min. The “< % (per cent decrease in motor activity)” value in series [1] (dose 300 mg/kg) turned out to be 57%.

Take `COCCCC(=O)NCc1ccc(C)cc1` [Compound 7)]: in the series with rats, the “Potency … of action compared with GHB” value is listed as “better than those of GHB”; the Neuropharmacological profile result is “biphasic neuropharmacological profile”; the “Duration of action compared with GHB” value is reported as “longer duration of action”; the “Potency compared with GHB” value is “more powerful than GHB”. Moreover, in the series on rats (dose 25-50 mg/kg), the “Excitatory effects Start” value turned out to be 20 min. The “< % (per cent decrease in motor activity)” value in series [1] (dose 100 mg/kg) turned out to be 76%.

Take `COCCCC(=O)NCc1ccc(Cl)cc1` [Compound 11)]: in the series with rats, the Neuropharmacological profile result is recorded as “biphasic neuropharmacological profile” and the “Potency compared with GHB” value is listed as “more powerful than GHB”. In the series with rats (dose 25-50 mg/kg), the “Excitatory effects Duration” value worked out at 60 min and the “Excitatory effects Start” value amounted to 20 min. In series [1] (dose 100 mg/kg), the “< % (per cent decrease in motor activity)” value was 70%.

Take `O=C(CCCO)NCc1cccnc1` [Compound 9)]: in the series on rats (dose 100 mg/kg), the “Excitatory effects Duration” value is on record as 15 min and the “Excitatory effects Start” value was 60 min. The “< % (per cent decrease in motor activity)” value in series [1] (dose 300 mg/kg) is 72%. In addition, in series [1] (dose 100-200 mg/kg), the “< % (per cent decrease in motor activity)” value is 0%.

In the case of `CCCOCCCC(=O)NCc1ccc(C)cc1` [Compound 13)], in the series with rats, the Neuropharmacological profile entry was “biphasic neuropharmacological profile”. Besides, in the series on rats (dose 100 mg/kg), the “Excitatory effects Duration” value is on record as 30 min and the “Excitatory effects Start” value is recorded as 45 min. Also, in series [1] (dose 100 mg/kg), the “< % (per cent decrease in motor activity)” value is 58%.

On to `COCCCC(=O)NCc1ccc(C(F)(F)F)cc1` [Compound 15)], for which, in the series with rats, the “Potency … of action compared with GHB” value is on record as “better than those of GHB”; the Neuropharmacological profile result was “biphasic neuropharmacological profile”; the “Duration of action compared with GHB” value is “longer duration of action”; the “Potency compared with GHB” value is “more powerful than GHB”. In addition, in the series with rats (dose 25-50 mg/kg), the “Excitatory effects Start” value was found to be 20 min. The “< % (per cent decrease in motor activity)” value in series [1] (dose 25-50 mg/kg) turned out to be 64%.
